Experimental data reported in the supplement of paper PMC11451515.

Tested on: SEM cells
Assay: cell viability relative to DMSO control; higher = less cytotoxic
Details: 48 h
Outline: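 Leukemia cells (NOMO1 or SEM, 500 cells/well; P12-Ichikawa, 1000 cells/well) were seeded in 5 μl in 1536-well plates after at least four passages of adaptation to each medium. They received library compounds in DMSO by pin dosing, 11 threefold points from 47 μM to 0.79 nM. Luminescence with CellTiter-Glo One was read after 48 h at 37°C. Viability is stated per plate relative to DMSO wells, with cell-free wells as background.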

[1] = HPLM + 10% dialyzed FBS, 0.000781 µM
[2] = HPLM + 10% dialyzed FBS, 0.00234 µM
[3] = HPLM + 10% dialyzed FBS, 0.00702 µM
[4] = HPLM + 10% dialyzed FBS, 0.0211 µM
[5] = HPLM + 10% dialyzed FBS, 0.0632 µM
[6] = HPLM + 10% dialyzed FBS, 0.19 µM
[7] = HPLM + 10% dialyzed FBS, 0.569 µM
[8] = HPLM + 10% dialyzed FBS, 1.71 µM
[9] = HPLM + 10% dialyzed FBS, 5.12 µM
[10] = HPLM + 10% dialyzed FBS, 15.4 µM
[11] = HPLM + 10% dialyzed FBS, 46.1 µM
[12] = RPMI 5 mM glucose + 10% FBS, 0.000781 µM
[13] = RPMI 5 mM glucose + 10% FBS, 0.00234 µM
[14] = RPMI 5 mM glucose + 10% FBS, 0.00702 µM
[15] = RPMI 5 mM glucose + 10% FBS, 0.0211 µM
[16] = RPMI 5 mM glucose + 10% FBS, 0.0632 µM
[17] = RPMI 5 mM glucose + 10% FBS, 0.19 µM
[18] = RPMI 5 mM glucose + 10% FBS, 0.569 µM
[19] = RPMI 5 mM glucose + 10% FBS, 1.71 µM
[20] = RPMI 5 mM glucose + 10% FBS, 5.12 µM
[21] = RPMI 5 mM glucose + 10% FBS, 15.4 µM
[22] = RPMI 5 mM glucose + 10% FBS, 46.1 µM
[23] = RPMI 5 mM glucose + 10% dialyzed FBS, 0.000781 µM
[24] = RPMI 5 mM glucose + 10% dialyzed FBS, 0.00234 µM
[25] = RPMI 5 mM glucose + 10% dialyzed FBS, 0.00702 µM
[26] = RPMI 5 mM glucose + 10% dialyzed FBS, 0.0211 µM
[27] = RPMI 5 mM glucose + 10% dialyzed FBS, 0.0632 µM
[28] = RPMI 5 mM glucose + 10% dialyzed FBS, 0.19 µM
[29] = RPMI 5 mM glucose + 10% dialyzed FBS, 0.569 µM
[30] = RPMI 5 mM glucose + 10% dialyzed FBS, 1.71 µM
[31] = RPMI 5 mM glucose + 10% dialyzed FBS, 5.12 µM
[32] = RPMI 5 mM glucose + 10% dialyzed FBS, 15.4 µM
[33] = RPMI 5 mM glucose + 10% dialyzed FBS, 46.1 µM

## C[C@H]1CN(C[C@@H](C)O1)CC(=O)NC2=CC=C3SC4=C(CC3=C2)C=CC=C4\C5=C\C(=O)\C=C(/O5)N6CCOCC6
[1]
  cell viability: 80.4%
[2]
  cell viability: 108%
[3]
  cell viability: 43%
[4]
  cell viability: 118%
[5]
  cell viability: 110%
[6]
  cell viability: 126%
[7]
  cell viability: 113%
[8]
  cell viability: 113%
[9]
  cell viability: 89.8%
[10]
  cell viability: 84.4%
[11]
  cell viability: 39.8%
[12]
  cell viability: 76.2%
[13]
  cell viability: 91.8%
[14]
  cell viability: 14.3%
[15]
  cell viability: 78.1%
[16]
  cell viability: 86.6%
[17]
  cell viability: 80.5%
[18]
  cell viability: 83.2%
[19]
  cell viability: 81.9%
[20]
  cell viability: 75.8%
[21]
  cell viability: 44.1%
[22]
  cell viability: 15%
[23]
  cell viability: 86.7%
[24]
  cell viability: 95.3%
[25]
  cell viability: 34.6%
[26]
  cell viability: 101%
[27]
  cell viability: 118%
[28]
  cell viability: 111%
[29]
  cell viability: 103%
[30]
  cell viability: 99.4%
[31]
  cell viability: 73.7%
[32]
  cell viability: 46.9%
[33]
  cell viability: 19.6%

## O=[N+]([O-])c1cn2c(n1)OC[C@@H](OCc1ccc(OC(F)(F)F)cc1)C2
[1]
  cell viability: 105%
[2]
  cell viability: 97.3%
[3]
  cell viability: 108%
[4]
  cell viability: 115%
[5]
  cell viability: 109%
[6]
  cell viability: 101%
[7]
  cell viability: 96.3%
[8]
  cell viability: 89%
[9]
  cell viability: 86.7%
[10]
  cell viability: 92.4%
[11]
  cell viability: 90.5%
[12]
  cell viability: 120%
[13]
  cell viability: 112%
[14]
  cell viability: 118%
[15]
  cell viability: 144%
[16]
  cell viability: 117%
[17]
  cell viability: 129%
[18]
  cell viability: 137%
[19]
  cell viability: 125%
[20]
  cell viability: 114%
[21]
  cell viability: 122%
[22]
  cell viability: 132%

## COC[C@H](NC(=O)c1cnc(C)s1)C(=O)N[C@@H](COC)C(=O)N[C@@H](Cc1ccccc1)C(=O)[C@@]1(C)CO1
[1]
  cell viability: 116%
[2]
  cell viability: 97.1%
[3]
  cell viability: 110%
[4]
  cell viability: 121%
[5]
  cell viability: 92.3%
[6]
  cell viability: 5.47%
[7]
  cell viability: 3.74%
[8]
  cell viability: 3.51%
[9]
  cell viability: 2.04%
[10]
  cell viability: 1.53%
[11]
  cell viability: 2.48%
[12]
  cell viability: 102%
[13]
  cell viability: 91.6%
[14]
  cell viability: 111%
[15]
  cell viability: 120%
[16]
  cell viability: 82%
[17]
  cell viability: 6.81%
[18]
  cell viability: 3.82%
[19]
  cell viability: 3.59%
[20]
  cell viability: 2.31%
[21]
  cell viability: 1.56%
[22]
  cell viability: 2.78%
[23]
  cell viability: 81.9%
[24]
  cell viability: 87.7%
[25]
  cell viability: 108%
[26]
  cell viability: 101%
[27]
  cell viability: 70.3%
[28]
  cell viability: 5.77%
[29]
  cell viability: 3.78%
[30]
  cell viability: 2.78%
[31]
  cell viability: 1.96%
[32]
  cell viability: 1.46%
[33]
  cell viability: 2.4%

## CN1CCCN(C(=O)c2cccc(-c3ccc(/C=C4/C(=O)Nc5ccc(Cl)cc54)o3)c2)CC1
[1]
  cell viability: 98.9%
[2]
  cell viability: 106%
[3]
  cell viability: 109%
[4]
  cell viability: 101%
[5]
  cell viability: 118%
[6]
  cell viability: 107%
[7]
  cell viability: 84.1%
[8]
  cell viability: 71.7%
[9]
  cell viability: 48.4%
[10]
  cell viability: 22.8%
[11]
  cell viability: 2.97%
[12]
  cell viability: 90.2%
[13]
  cell viability: 117%
[14]
  cell viability: 106%
[15]
  cell viability: 119%
[16]
  cell viability: 127%
[17]
  cell viability: 112%
[18]
  cell viability: 77.2%
[19]
  cell viability: 48%
[20]
  cell viability: 16.7%
[21]
  cell viability: 5.69%
[22]
  cell viability: 3.36%
[23]
  cell viability: 110%
[24]
  cell viability: 108%
[25]
  cell viability: 115%
[26]
  cell viability: 106%
[27]
  cell viability: 114%
[28]
  cell viability: 115%
[29]
  cell viability: 75.7%
[30]
  cell viability: 62.9%
[31]
  cell viability: 20.4%
[32]
  cell viability: 5.5%
[33]
  cell viability: 3.68%

## CCC[C@@H]1C[C@@H](C(=O)N[C@@H]([C@H]2O[C@H](SC)[C@H](O)[C@@H](O)[C@H]2O)[C@@H](C)O)N(C)C1.Cl
[1]
  cell viability: 125%
[2]
  cell viability: 121%
[3]
  cell viability: 118%
[4]
  cell viability: 109%
[5]
  cell viability: 119%
[6]
  cell viability: 127%
[7]
  cell viability: 114%
[8]
  cell viability: 122%
[9]
  cell viability: 103%
[10]
  cell viability: 117%
[11]
  cell viability: 91%
[12]
  cell viability: 110%
[13]
  cell viability: 114%
[14]
  cell viability: 105%
[15]
  cell viability: 99.3%
[16]
  cell viability: 120%
[17]
  cell viability: 110%
[18]
  cell viability: 130%
[19]
  cell viability: 111%
[20]
  cell viability: 111%
[21]
  cell viability: 111%
[22]
  cell viability: 97.4%
[23]
  cell viability: 113%
[24]
  cell viability: 119%
[25]
  cell viability: 141%
[26]
  cell viability: 118%
[27]
  cell viability: 136%
[28]
  cell viability: 133%
[29]
  cell viability: 132%
[30]
  cell viability: 137%
[31]
  cell viability: 125%
[32]
  cell viability: 104%
[33]
  cell viability: 116%

## O=C1NC(=O)[C@@H](c2cn3c4c(cccc24)CCC3)[C@@H]1c1c[nH]c2ccccc12
[1]
  cell viability: 91.6%
[2]
  cell viability: 98.3%
[3]
  cell viability: 111%
[4]
  cell viability: 99.9%
[5]
  cell viability: 93.8%
[6]
  cell viability: 75.2%
[7]
  cell viability: 96.5%
[8]
  cell viability: 39.9%
[9]
  cell viability: 25.5%
[10]
  cell viability: 22.3%
[11]
  cell viability: 28.9%
[12]
  cell viability: 117%
[13]
  cell viability: 114%
[14]
  cell viability: 113%
[15]
  cell viability: 115%
[16]
  cell viability: 124%
[17]
  cell viability: 76.2%
[18]
  cell viability: 88%
[19]
  cell viability: 27.4%
[20]
  cell viability: 20.6%
[21]
  cell viability: 16.2%
[22]
  cell viability: 22.5%
[23]
  cell viability: 90.6%
[24]
  cell viability: 98.5%
[25]
  cell viability: 103%
[26]
  cell viability: 84.1%
[27]
  cell viability: 114%
[28]
  cell viability: 83.2%
[29]
  cell viability: 102%
[30]
  cell viability: 39.1%
[31]
  cell viability: 22.7%
[32]
  cell viability: 16.4%
[33]
  cell viability: 34.4%

## CNC(=O)[C@H](Cc1ccccc1)NC(=O)[C@H](CC(C)C)[C@H](CSc1cccs1)C(=O)NO
[1]
  cell viability: 83%
[2]
  cell viability: 82.9%
[3]
  cell viability: 90%
[4]
  cell viability: 96%
[5]
  cell viability: 87.5%
[6]
  cell viability: 110%
[7]
  cell viability: 100%
[8]
  cell viability: 95.7%
[9]
  cell viability: 80.4%
[10]
  cell viability: 57.7%
[11]
  cell viability: 24.5%
[12]
  cell viability: 95.9%
[13]
  cell viability: 75.4%
[14]
  cell viability: 96.3%
[15]
  cell viability: 105%
[16]
  cell viability: 74.8%
[17]
  cell viability: 90.6%
[18]
  cell viability: 89.8%
[19]
  cell viability: 97.6%
[20]
  cell viability: 77.7%
[21]
  cell viability: 45.8%
[22]
  cell viability: 25.4%
[23]
  cell viability: 86.5%
[24]
  cell viability: 69.4%
[25]
  cell viability: 75.4%
[26]
  cell viability: 82.2%
[27]
  cell viability: 67.2%
[28]
  cell viability: 81.7%
[29]
  cell viability: 90.6%
[30]
  cell viability: 78.4%
[31]
  cell viability: 70.6%
[32]
  cell viability: 40.4%
[33]
  cell viability: 21.5%

## CC(C)(C)/[N+]([O-])=C/c1ccc([S+](=O)([O-])[O][Na])cc1[S+](=O)([O-])[O][Na]
[1]
  cell viability: 88.7%
[2]
  cell viability: 76.3%
[3]
  cell viability: 84.5%
[4]
  cell viability: 99.9%
[5]
  cell viability: 84.6%
[6]
  cell viability: 98.6%
[7]
  cell viability: 101%
[8]
  cell viability: 90.3%
[9]
  cell viability: 88.1%
[10]
  cell viability: 99.2%
[11]
  cell viability: 94.9%
[12]
  cell viability: 115%
[13]
  cell viability: 83.1%
[14]
  cell viability: 86.9%
[15]
  cell viability: 109%
[16]
  cell viability: 105%
[17]
  cell viability: 124%
[18]
  cell viability: 110%
[19]
  cell viability: 108%
[20]
  cell viability: 116%
[21]
  cell viability: 91.2%
[22]
  cell viability: 108%
[23]
  cell viability: 95.7%
[24]
  cell viability: 105%
[25]
  cell viability: 102%
[26]
  cell viability: 94.1%
[27]
  cell viability: 98.8%
[28]
  cell viability: 120%
[29]
  cell viability: 117%
[30]
  cell viability: 104%
[31]
  cell viability: 113%
[32]
  cell viability: 105%
[33]
  cell viability: 110%
